From ChEMBL document CHEMBL2073757, “Effect of flavonoids on MRP1-mediated transport in Panc-1 cells” (J Pharm Sci, 2003)
Blank lines part the entries; values can stand above or below the compound they belong to.

Tests used:
Format in all cases: functional, cell-based
[1] = biological target: T1, Multidrug resistance-associated protein 1 (Homo sapiens, UniProt P33527); experiment: TP_TRANSPORTER: increase in Daunomycin intracellular accumulation (Daunomycin: 0.05 uM, BiochaninA: 100 uM) in Panc-1 cells; conditions: panc-1, 100 µM
[2] = biological target: T1, Multidrug resistance-associated protein 1; experiment: TP_TRANSPORTER: increase in Vinblastine intracellular accumulation (Vinblastine: 0.05 uM, BiochaninA: 101 uM) in Panc-1 cells; conditions: panc-1, 101 µM
[3] = biological target: T1, Multidrug resistance-associated protein 1; experiment: TP_TRANSPORTER: increase in Daunomycin intracellular accumulation (Daunomycin: 0.05 uM, Chrysin: 100 uM) in Panc-1 cells; conditions: panc-1, 100 µM
[4] = biological target: T1, Multidrug resistance-associated protein 1; experiment: TP_TRANSPORTER: increase in Vinblastine intracellular accumulation (Vinblastine: 0.05 uM, Chrysin: 100 uM) in Panc-1 cells; conditions: panc-1, 100 µM
[5] = biological target: T1, Multidrug resistance-associated protein 1; experiment: TP_TRANSPORTER: increase in Daunomycin intracellular accumulation (Daunomycin: 0.05 uM, Genistein: 100 uM) in Panc-1 cells; conditions: panc-1, 100 µM
[6] = biological target: T1, Multidrug resistance-associated protein 1; experiment: TP_TRANSPORTER: increase in Vinblastine intracellular accumulation (Vinblastine: 0.05 uM, Genistein: 100 uM) in Panc-1 cells; conditions: panc-1, 100 µM
[7] = biological target: T1, Multidrug resistance-associated protein 1; experiment: TP_TRANSPORTER: increase in Vinblastine intracellular accumulation (Vinblastine: 0.05 uM, Morin: 100 uM) in Panc-1 cells; conditions: panc-1, 100 µM
[8] = biological target: T1, Multidrug resistance-associated protein 1; experiment: TP_TRANSPORTER: increase in Daunomycin intracellular accumulation (Daunomycin: 0.05 uM, Morin: 100 uM) in Panc-1 cells; conditions: panc-1, 100 µM
[9] = biological target: T1, Multidrug resistance-associated protein 1; experiment: TP_TRANSPORTER: increase in Daunomycin intracellular accumulation (Daunomycin: 0.05 uM, Phloretin: 100 uM) in PANC-1 cells; conditions: panc-1, 100 µM
[10] = biological target: T1, Multidrug resistance-associated protein 1; experiment: TP_TRANSPORTER: increase in Vinblastine intracellular accumulation (Vinblastine: 0.05 uM, Phloretin: 100 uM) in PANC-1 cells; conditions: panc-1, 100 µM
[11] = biological target: T1, Multidrug resistance-associated protein 1; experiment: TP_TRANSPORTER: increase in Vinblastine intracellular accumulation (Vinblastine: 0.05 uM, Silymarin: 100 uM) in Panc-1 cells; conditions: panc-1, 100 µM
[12] = biological target: T1, Multidrug resistance-associated protein 1; experiment: TP_TRANSPORTER: increase in Daunomycin intracellular accumulation (Daunomycin: 0.05 uM, Silymarin: 100 uM) in Panc-1 cells; conditions: panc-1, 100 µM

T1 sequence (P33527 whole entry): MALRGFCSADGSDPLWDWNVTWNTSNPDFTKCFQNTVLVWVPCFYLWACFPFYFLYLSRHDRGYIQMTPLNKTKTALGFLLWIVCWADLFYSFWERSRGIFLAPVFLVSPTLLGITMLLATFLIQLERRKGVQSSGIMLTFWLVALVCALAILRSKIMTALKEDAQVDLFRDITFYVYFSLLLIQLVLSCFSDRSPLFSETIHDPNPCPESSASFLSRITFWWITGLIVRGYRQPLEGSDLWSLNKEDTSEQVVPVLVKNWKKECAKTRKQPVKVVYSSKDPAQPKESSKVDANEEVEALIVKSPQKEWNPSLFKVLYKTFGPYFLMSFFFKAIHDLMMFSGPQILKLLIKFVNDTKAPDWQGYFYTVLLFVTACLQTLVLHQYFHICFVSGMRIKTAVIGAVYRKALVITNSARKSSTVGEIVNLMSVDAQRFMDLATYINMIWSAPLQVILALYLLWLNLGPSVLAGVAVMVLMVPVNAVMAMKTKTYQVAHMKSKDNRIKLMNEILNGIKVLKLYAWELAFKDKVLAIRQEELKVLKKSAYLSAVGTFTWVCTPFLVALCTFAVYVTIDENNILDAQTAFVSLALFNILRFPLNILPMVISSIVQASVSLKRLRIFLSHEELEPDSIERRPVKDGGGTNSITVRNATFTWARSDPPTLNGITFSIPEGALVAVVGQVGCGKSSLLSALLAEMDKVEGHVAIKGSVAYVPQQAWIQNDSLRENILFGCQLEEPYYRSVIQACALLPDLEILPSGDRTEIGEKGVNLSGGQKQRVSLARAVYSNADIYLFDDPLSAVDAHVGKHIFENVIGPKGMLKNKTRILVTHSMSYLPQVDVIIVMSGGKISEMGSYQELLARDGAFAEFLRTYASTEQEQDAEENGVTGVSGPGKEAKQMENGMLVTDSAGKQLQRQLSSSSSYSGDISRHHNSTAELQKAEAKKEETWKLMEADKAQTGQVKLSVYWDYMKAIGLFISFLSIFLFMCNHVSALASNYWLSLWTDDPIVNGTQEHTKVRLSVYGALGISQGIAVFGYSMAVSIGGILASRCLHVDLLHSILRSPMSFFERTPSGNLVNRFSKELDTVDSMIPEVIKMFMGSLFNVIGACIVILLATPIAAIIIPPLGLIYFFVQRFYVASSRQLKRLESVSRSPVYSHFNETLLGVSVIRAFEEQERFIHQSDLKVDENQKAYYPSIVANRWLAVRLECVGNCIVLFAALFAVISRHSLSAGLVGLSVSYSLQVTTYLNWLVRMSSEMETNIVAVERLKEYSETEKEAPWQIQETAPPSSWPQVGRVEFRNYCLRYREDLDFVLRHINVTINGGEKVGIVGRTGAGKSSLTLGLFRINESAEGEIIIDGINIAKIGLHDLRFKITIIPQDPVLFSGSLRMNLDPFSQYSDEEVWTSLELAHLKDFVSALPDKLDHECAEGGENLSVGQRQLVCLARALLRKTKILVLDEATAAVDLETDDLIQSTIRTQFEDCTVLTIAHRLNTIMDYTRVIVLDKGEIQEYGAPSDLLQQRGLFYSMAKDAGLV

Compound: COc1ccc(-c2coc3cc(O)cc(O)c3c2=O)cc1 [BIOCHANIN]
Activity [1]: 178%
Activity [2]: 330%

Compound: O=c1cc(-c2ccccc2)oc2cc(O)cc(O)c12 [CHRYSIN]
Activity [3]: 198%
Activity [4]: 180%

Compound: O=c1c(O)c(-c2ccc(O)cc2O)oc2cc(O)cc(O)c12 [MORIN]
Activity [7]: 553%
Activity [8]: 546%

Compound: SILYMARIN
Activity [11]: 329%
Activity [12]: 305%

Continued, values first:

Activity [5]: 156%
Activity [6]: 191%
Compound: O=c1c(-c2ccc(O)cc2)coc2cc(O)cc(O)c12 [GENISTEIN]

Activity [9]: 295%
Activity [10]: 251%
Compound: O=C(CCc1ccc(O)cc1)c1c(O)cc(O)cc1O [PHLORETIN]
